Results from patent US6887896B1, “7-[(7-Alkoxy)-chrom-3-en-6-yl]-heptatrienoic acid and 7-[(3-alkoxy)-5,6-dihydronaphthalen-2-yl]-heptatrienoic acid derivatives having serum glucose reducing activity” (Allergan, Inc., priority 2003, dated 2005).

Legend:
RARβ [1] = target: T1, RARβ (Homo sapiens, UniProt P10826); experiment: chimeric receptor transactivation assay, RARβ; format: cell-based; settings: for EC50: chimeric receptor transactivation, read-out: RAR Trans. EC50 β; for Emax: percentage compared to the standard compound, read-out: RAR Trans. efficacy (number in parentheses) β
T1 sequence (P10826 183-417 limits assumed): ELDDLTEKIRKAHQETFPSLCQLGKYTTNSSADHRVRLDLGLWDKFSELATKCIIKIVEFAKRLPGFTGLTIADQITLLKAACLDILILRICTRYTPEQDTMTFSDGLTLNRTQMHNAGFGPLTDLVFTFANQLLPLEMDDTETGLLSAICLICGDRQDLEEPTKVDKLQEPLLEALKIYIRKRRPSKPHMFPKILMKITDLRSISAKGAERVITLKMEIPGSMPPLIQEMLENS
In short: (§1)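 Readout: EC50, nM, from receptor transactivation; efficacy = % of maximum vs standard cyclopropyl penta-2,4-dienoic acid retinoid. RXR data from holoreceptor format; RAR data from chimeric receptor format.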

RARγ = target: T2, RARγ (Homo sapiens, UniProt P13631); experiment: ligand binding assay, RARγ; settings: read-out: RAR Bind. Ki γ
T2 sequence (P13631 1-454): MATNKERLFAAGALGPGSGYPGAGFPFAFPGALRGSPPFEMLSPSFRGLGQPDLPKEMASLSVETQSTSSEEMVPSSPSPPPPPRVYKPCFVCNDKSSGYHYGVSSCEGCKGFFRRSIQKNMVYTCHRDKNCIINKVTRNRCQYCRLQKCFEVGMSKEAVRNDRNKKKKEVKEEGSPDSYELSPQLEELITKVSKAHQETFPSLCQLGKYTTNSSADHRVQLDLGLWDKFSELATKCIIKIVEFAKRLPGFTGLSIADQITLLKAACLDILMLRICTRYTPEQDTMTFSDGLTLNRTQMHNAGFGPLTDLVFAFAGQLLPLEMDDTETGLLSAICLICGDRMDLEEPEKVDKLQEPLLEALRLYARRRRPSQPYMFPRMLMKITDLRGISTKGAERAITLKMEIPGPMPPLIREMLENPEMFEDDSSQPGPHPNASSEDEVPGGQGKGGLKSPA
In short: (§2)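 Binding of compounds to several retinoid receptor subtypes was measured. Results are given as Ki values in nanomolar concentration, derived per Cheng et al.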

RXRγ = target: T3, RXRγ (UniProt P28705); experiment: holoreceptor transactivation assay, RXRγ; format: cell-based; settings: for EC50: holoreceptor transactivation, read-out: RXR Trans. EC50 γ; for RXR Trans. efficacy (number in parentheses) γ: percentage compared to the standard compound
T3 sequence (P28705 1-463): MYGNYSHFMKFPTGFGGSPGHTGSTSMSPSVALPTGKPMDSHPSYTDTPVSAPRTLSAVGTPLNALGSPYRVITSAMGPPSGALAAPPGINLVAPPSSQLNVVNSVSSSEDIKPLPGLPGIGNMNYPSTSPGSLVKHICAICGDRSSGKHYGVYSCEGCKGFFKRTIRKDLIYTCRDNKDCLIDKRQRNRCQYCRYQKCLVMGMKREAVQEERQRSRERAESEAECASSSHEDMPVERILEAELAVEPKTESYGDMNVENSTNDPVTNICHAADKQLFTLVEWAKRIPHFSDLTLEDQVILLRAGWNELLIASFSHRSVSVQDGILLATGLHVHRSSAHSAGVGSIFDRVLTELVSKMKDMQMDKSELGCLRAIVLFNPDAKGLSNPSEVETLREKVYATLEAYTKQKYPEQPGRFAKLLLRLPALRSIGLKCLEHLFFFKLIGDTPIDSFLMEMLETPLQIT
In short: as §1

RARβ [2] = target: T4, RARβ (Homo sapiens, UniProt P10826); experiment: ligand binding assay, RARβ; settings: read-out: RAR Bind. Ki β
T4 sequence (P10826 1-455): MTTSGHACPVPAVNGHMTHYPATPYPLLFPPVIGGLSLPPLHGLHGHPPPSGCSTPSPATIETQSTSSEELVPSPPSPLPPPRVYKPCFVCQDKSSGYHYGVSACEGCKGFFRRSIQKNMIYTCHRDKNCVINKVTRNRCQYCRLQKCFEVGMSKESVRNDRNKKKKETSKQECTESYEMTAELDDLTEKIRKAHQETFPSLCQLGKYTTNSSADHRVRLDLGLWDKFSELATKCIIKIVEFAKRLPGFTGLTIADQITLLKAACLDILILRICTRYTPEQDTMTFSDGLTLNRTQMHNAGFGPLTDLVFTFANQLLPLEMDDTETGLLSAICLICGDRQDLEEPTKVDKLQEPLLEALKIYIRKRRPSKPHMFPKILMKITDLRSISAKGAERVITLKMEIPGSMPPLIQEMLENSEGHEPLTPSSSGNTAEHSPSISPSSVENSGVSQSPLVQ
In short: as §2

| EC50 (RARβ [1]) | Emax (RARβ [1]) | Ki (RARγ) | EC50 (RXRγ) | RXR Trans. efficacy (number in parentheses) γ (RXRγ) | Ki (RARβ [2]) | Structure (SMILES) |
| --- | --- | --- | --- | --- | --- | --- |
| 65 nM | 31% | 2700 nM | 0.6 nM | 86% | 547 nM | CC/C(=C(F)/C=C/C(C)=C/C(=O)O)c1cc2c(cc1OC)OC(C)(C)C=C2C(C)C [Compound 130, 6-Fluoro-7-(4-isopropyl-7-methoxy-2,2-dimethyl-2H-chromen-6-yl)-3-methyl-nona-2E,4E,6E-trienoic acid] |
| 50 nM | 7% | 1900 nM | 0.9 nM | 73% | 401 nM | CCOc1cc2c(cc1\C(C)=C/C=C/C(C)=C/C(=O)O)C(C(C)(C)C)=CCC2(C)C [Compound A-17, 7-(8-tert-Butyl-3-ethyloxy-5,5-dimethyl-5,6-dihydronaphthalen-2-yl)-3-methyl-octa-2E,4E,6Z-trienoic acid] |
| > 10000 nM |  | 9200 nM | 51 nM | 109% | 2600 nM | CCOc1cc2c(cc1\C(C)=C(F)/C=C/C(C)=C/C(=O)O)C=CCC2(C)C [Compound A-76, (2E,4E,6E)-7-(3-Ethoxy-5,5-dimethyl-5,6-dihydro-naphthalen-2-yl)-6-fluoro-3-methyl-octa-2,4.6-trienoic acid] |
